Source: ChEMBL document CHEMBL3885861, “Open TG-GATES”

Species: Rattus norvegicus
Assay: Open TG-GATES - Regimen: Daily Repeat
Type: toxicity, organism-based, Sprague-Dawley
Set-up: regimen Daily Repeat, gender Male, age 6 weeks
Settings: in vivo, po, 500 mg/kg, route gavage, dose level High; for APTT / Bas / Eos / Fbg / Hb / Ht / Lym / MCH / MCHC / MCV / Mono / Neu / PT / Plat / RBC / Ret / WBC: tissue Blood
[1] = 72 h, tissue Kidney, time 3 day
[2] = 72 h, tissue Plasma, time 3 day

`CN1C(=O)OC(C)(C)C1=O` [TRIMETHADIONE] was tested, and the TERMINAL_BW (72 h, time 3 day) was 231.2 g, the APTT (72 h, time 3 day) was 19.5 s and the Bas (72 h, time 3 day) was 0.2%. It also gave an Eos (72 h, time 3 day) of 0.6%, a Fbg (72 h, time 3 day) of 280 mg/dL and a Hb (72 h, time 3 day) of 13.7 g/dL. The Ht (72 h, time 3 day) was 40.3%, the Lym (72 h, time 3 day) was 80% and the MCH (72 h, time 3 day) was 21.4 pg. It also gave an MCHC (72 h, time 3 day) of 34%, an MCV (72 h, time 3 day) of 63 fL and a Mono (72 h, time 3 day) of 3.2%. For the same molecule, the Neu (72 h, time 3 day) was 15.6%, the PT (72 h, time 3 day) was 13.3 s and the Plat (72 h, time 3 day) was 127.8 x10_4/uL. It also gave an RBC (72 h, time 3 day) of 640 x10_4/ul, a Ret (72 h, time 3 day) of 5.1% and a WBC (72 h, time 3 day) of 107.7 x10_2/uL. The KIDNEY_L [1] was 1.1 g, the KIDNEY_R [1] was 1 g and the KIDNEY_TOTAL [1] was 2.1 g. The LIVER (72 h, tissue Liver, time 3 day) was 13.3 g, the A/G [2] was 0.8 and the ALP [2] was 1686.2 IU/L. It also gave an ALT [2] of 57.2 IU/L, an AST [2] of 106.6 IU/L and a BUN [2] of 16 mg/dL. The CRE [2] was 0.2 mg/dL, the Ca [2] was 11.2 mg/dL and the Cl [2] was 99.4 meq/L. For the same molecule, the DBIL [2] was 0.006 mg/dL, the GLC [2] was 169.4 mg/dL and the IP [2] was 7.7 mg/dL. For the same molecule, the K [2] was 4.5 meq/L, the LDH [2] was 114.8 IU/L and the Na [2] was 143 meq/L. It also gave a PL [2] of 160 mg/dL, an RALB [2] of 2.7 g/dL and a TBIL [2] of 0.04 mg/dL. It also gave a TC [2] of 88.4 mg/dL, a TG [2] of 70.6 mg/dL and a TP [2] of 5.8 g/dL. It also gave a gamma-GTP [2] of 1 IU/L, a TERMINAL_BW ([…], time 7 day) of 268.1 g and a TERMINAL_BW ([…], time 14 day) of 306.3 g. The TERMINAL_BW ([…], time 28 day) was 346.7 g, the APTT ([…], time 7 day) was 15.5 s and the Bas ([…], time 7 day) was 0.6%. For the same molecule, the Eos ([…], time 7 day) was 0.8%, the Fbg ([…], time 7 day) was 272.6 mg/dL and the Hb ([…], time 7 day) was 13.4 g/dL. For the same molecule, the Ht ([…], time 7 day) was 39%, the Lym ([…], time 7 day) was 70.4% and the MCH ([…], time 7 day) was 21.2 pg. The MCHC ([…], time 7 day) was 34.4%, the MCV ([…], time 7 day) was 61.8 fL and the Mono ([…], time 7 day) was 4.2%. It also gave a Neu ([…], time 7 day) of 24%, a PT ([…], time 7 day) of 14.8 s and a Plat ([…], time 7 day) of 109.8 x10_4/uL. The RBC ([…], time 7 day) was 630.8 x10_4/ul, the Ret ([…], time 7 day) was 4.4% and the WBC ([…], time 7 day) was 138.4 x10_2/uL. It also gave an APTT ([…], time 14 day) of 33.5 s, a Bas ([…], time 14 day) of 0.2% and an Eos ([…], time 14 day) of 0.4%. For the same molecule, the Fbg ([…], time 14 day) was 282.6 mg/dL, the Hb ([…], time 14 day) was 14 g/dL and the Ht ([…], time 14 day) was 40.3%. It also gave a Lym ([…], time 14 day) of 77.2%, an MCH ([…], time 14 day) of 21.1 pg and an MCHC ([…], time 14 day) of 34.8%. The MCV ([…], time 14 day) was 60.7 fL, the Mono ([…], time 14 day) was 4.2% and the Neu ([…], time 14 day) was 17%. The PT ([…], time 14 day) was 14 s, the Plat ([…], time 14 day) was 116.4 x10_4/uL and the RBC ([…], time 14 day) was 664 x10_4/ul. For the same molecule, the Ret ([…], time 14 day) was 4.5%, the WBC ([…], time 14 day) was 86.5 x10_2/uL and the APTT ([…], time 28 day) was 19.2 s. The Bas ([…], time 28 day) was 0.2%, the Eos ([…], time 28 day) was 0.8% and the Fbg ([…], time 28 day) was 288.6 mg/dL. It also gave a Hb ([…], time 28 day) of 15.4 g/dL and a Ht ([…], time 28 day) of 43.1%.
